Values of other authors as cited in US20220134131A1, “ENERGY AUGMENTATION STRUCTURES FOR MEASURING AND THERAPEUTIC USES” (IMMUNOLIGHT, LLC, priority 2019, published 2022).

System: HT-29 cells

SMILES: OO [H2O2, hydrogen peroxide]
- effect of application on HT-29 cells: caused their death
